Results reported in the NIST ThermoML archive (doi:10.1021/je900210h).
± gives the expanded uncertainty stated by the source.

Settings: Fluid (supercritical or subcritical phases), Coaxial cylinder method

FCC(F)(F)F [1,1,1,2-tetrafluoroethane]
Settings	thermal conductivity [W/m/K]
385.18 K, 4959 kPa	0.0526 ± 0.0021
385.18 K, 4978 kPa	0.0528 ± 0.0022
385.18 K, 5000 kPa	0.053 ± 0.002
385.18 K, 5022 kPa	0.053 ± 0.002
385.18 K, 5042 kPa	0.053 ± 0.002
385.18 K, 5058 kPa	0.053 ± 0.002
385.18 K, 5080 kPa	0.053 ± 0.002
385.18 K, 5100 kPa	0.053 ± 0.002
385.18 K, 5120 kPa	0.053 ± 0.002
385.18 K, 5151 kPa	0.0528 ± 0.0022
385.18 K, 5179 kPa	0.0526 ± 0.0021
385.18 K, 5224 kPa	0.0524 ± 0.0021
385.18 K, 5254 kPa	0.0522 ± 0.0021
385.19 K, 4900 kPa	0.0512 ± 0.0021
385.19 K, 4918 kPa	0.0518 ± 0.0021
385.19 K, 5296 kPa	0.0518 ± 0.0021
385.19 K, 5322 kPa	0.0518 ± 0.0021
385.19 K, 5358 kPa	0.0516 ± 0.0021
385.19 K, 5402 kPa	0.0516 ± 0.0021
385.19 K, 5454 kPa	0.0514 ± 0.0021
385.19 K, 5513 kPa	0.0512 ± 0.0021
385.2 K, 4880 kPa	0.0505 ± 0.0021
385.21 K, 4840 kPa	0.0488 ± 0.002
385.22 K, 4820 kPa	0.048 ± 0.002
385.23 K, 4800 kPa	0.0471 ± 0.002
385.25 K, 4760 kPa	0.0458 ± 0.002
385.26 K, 4730 kPa	0.0446 ± 0.0019
385.28 K, 4700 kPa	0.0431 ± 0.0019
385.29 K, 4670 kPa	0.0421 ± 0.002
385.3 K, 4640 kPa	0.0411 ± 0.0019
385.31 K, 4610 kPa	0.0401 ± 0.0018
385.33 K, 4580 kPa	0.0393 ± 0.0018
385.34 K, 4540 kPa	0.0382 ± 0.0017
385.36 K, 4500 kPa	0.0371 ± 0.0017
385.37 K, 4460 kPa	0.0363 ± 0.0017
385.39 K, 4410 kPa	0.0352 ± 0.0016
385.41 K, 4360 kPa	0.0343 ± 0.0016
385.42 K, 4310 kPa	0.0335 ± 0.0016
385.57 K, 4260 kPa	0.0328 ± 0.0015
385.59 K, 4200 kPa	0.032 ± 0.002
385.61 K, 4120 kPa	0.0311 ± 0.0015
385.72 K, 5700 kPa	0.0514 ± 0.0021
385.72 K, 5714 kPa	0.0516 ± 0.0021
385.75 K, 4060 kPa	0.0305 ± 0.0015
385.78 K, 3920 kPa	0.0293 ± 0.0014
387.19 K, 7800 kPa	0.0564 ± 0.0023
387.2 K, 7501 kPa	0.0559 ± 0.0022
387.22 K, 7002 kPa	0.0545 ± 0.0022
387.23 K, 6650 kPa	0.0536 ± 0.0022
387.25 K, 6371 kPa	0.0527 ± 0.0021
387.27 K, 9502 kPa	0.0597 ± 0.0024
387.28 K, 18006 kPa	0.0691 ± 0.0027
387.29 K, 17000 kPa	0.0682 ± 0.0026
387.3 K, 8468 kPa	0.0578 ± 0.0023
387.3 K, 16290 kPa	0.0676 ± 0.0026
387.32 K, 14910 kPa	0.0663 ± 0.0026
387.33 K, 13500 kPa	0.0648 ± 0.0025
387.33 K, 14002 kPa	0.0653 ± 0.0025
387.34 K, 13000 kPa	0.0642 ± 0.0025
387.37 K, 11008 kPa	0.0619 ± 0.0024
387.37 K, 11503 kPa	0.0625 ± 0.0025
392.65 K, 180 kPa	0.02136 ± 0.0012
394.44 K, 6457 kPa	0.0507 ± 0.0021
394.44 K, 6523 kPa	0.0509 ± 0.0021
394.44 K, 6557 kPa	0.0511 ± 0.0021
394.45 K, 6140 kPa	0.0494 ± 0.002
394.45 K, 6200 kPa	0.0496 ± 0.0021
394.45 K, 6260 kPa	0.0498 ± 0.0021
394.45 K, 6300 kPa	0.05 ± 0.002
394.45 K, 6399 kPa	0.0503 ± 0.0021
394.46 K, 5940 kPa	0.0483 ± 0.002
394.46 K, 5980 kPa	0.0487 ± 0.002
394.46 K, 6044 kPa	0.0491 ± 0.002
394.46 K, 6100 kPa	0.0492 ± 0.002
394.47 K, 5760 kPa	0.0472 ± 0.002
394.47 K, 5767 kPa	0.0472 ± 0.002
394.47 K, 5800 kPa	0.0476 ± 0.002
394.47 K, 5811 kPa	0.0476 ± 0.002
394.47 K, 5851 kPa	0.048 ± 0.002
394.47 K, 5886 kPa	0.048 ± 0.002
394.49 K, 5583 kPa	0.0453 ± 0.0019
394.49 K, 5626 kPa	0.0457 ± 0.0019
394.49 K, 5641 kPa	0.046 ± 0.002
394.5 K, 5527 kPa	0.0444 ± 0.0019
394.52 K, 5428 kPa	0.043 ± 0.002
394.53 K, 5366 kPa	0.0419 ± 0.0018
394.54 K, 5314 kPa	0.0411 ± 0.0018
394.55 K, 5300 kPa	0.0409 ± 0.0018
394.56 K, 5246 kPa	0.04 ± 0.002
394.56 K, 6908 kPa	0.0519 ± 0.0021
394.56 K, 7067 kPa	0.0523 ± 0.0021
